Source: patent publication US8454982B2, “Stable S-(+)-abscisic acid liquid and soluble granule formulations” (Valent BioSciences Corporation, priority 2007, dated 2013)

Key:
Flame Seedless grapes = experiment: Field table grape coloration; assay type: in vivo; conditions: for Number of colored clusters per 4 vines: foliar, 200 gallons/acre
Procedure: ABA formulation performance was evaluated in the field using table grape coloration to assess efficacy. Treatments consisted of untreated control, ethephon control (industry standard ethylene-releasing agent), ABA technical (95% ABA solubilized in ethanol), ABA liquid formulation, and ABA water-soluble granule formulation. All treatments had 0.05% v/v Latron B-1956 surfactant included. The three ABA treatments (200 ppm ABA; 200 gallons/acre) and the ethephon control (250 ppm at 200 gallons/acre) were foliar applied with a backpack sprayer at 10 to 20% color development (June 27) on Flame Seedless grapes commercially grown in Arvin, Calif. The numbers of color clusters per 4 vines were assessed at 8 and 11 days after treatment.

Coleus plants = experiment: Greenhouse Coleus wilting (drought tolerance, shelf life); assay type: in vivo
Procedure: ABA formulation performance was evaluated in the greenhouse using Coleus wilting to assess efficacy. Treatments consisted of control, ABA technical (95% ABA solubilized in ethanol), ABA liquid formulation, and ABA water-soluble granule formulation. Coleus plants were grown in four-inch diameter pots to the 6 to 8 leaf stage (n=4 plants/treatment). Water (15 mL/plant) was drench-applied to the control plants, and ABA (15 mL/plant; 250 ppm ABA) was drench applied to ABA treated plants. The plants were held in a greenhouse without irrigation until all plants wilted to a point when they were determined to be unmarketable. The plants were rated daily for the extent of wilting on a scale from 1 (no wilting) to 4 (complete wilting). A rating of 2.5 was the point at which a plant was determined to be unmarketable and the previous day was recorded as the marketable life of that plant in days.

| SMILES | Number of colored clusters per 4 vines (Flame Seedless grapes; 8 days after treatment) | Number of colored clusters per 4 vines (Flame Seedless grapes; 11 days after treatment) | Number of colored clusters, comparison (Flame Seedless grapes; in vivo) | Days of shelf life after treatment (Coleus plants; drench 15 mL/plant, 250 ppm ABA, no irrigation) [days] | Coleus wilting / shelf life, comparison (Coleus plants; in vivo) |
| --- | --- | --- | --- | --- | --- |
| CC1=CC(=O)CC(C)(C)[C@@]1(O)/C=C/C(C)=C\C(=O)O [ABA technical, S-(+)-abscisic acid] | 9.0 | 11.2 | increased the number of colored clusters more than the ethephon control | 12 | delayed wilting and increased shelf life of Coleus plants |
| O=P(O)(O)CCCl [Ethephon control, ethephon, reference compound] | 6.0 | 6.7 | – | – | – |
